{"source": "paper PMC9578396", "about": "“Intrinsic Antibacterial Activity of Xeruborbactam In Vitro: Assessing Spectrum and Mode of Action” (Antimicrobial Agents and Chemotherapy, 2022)", "system": "Klebsiella pneumoniae", "test": "microbe, parasite or virus in culture", "format": "cell-based", "conditions": "for MIC90: read-out: MIC90", "outline": "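Test organisms were KPC-producing clinical isolates (some enriched for porin mutations), matched isolates that lost KPC plasmids, and engineered porin/efflux mutant strains. Susceptibility was measured by broth microdilution following CLSI methods, using panels prepared in-house.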", "key": {"[1]": {"conditions": "Klebsiella pneumoniae, 575 isolates"}, "[2]": {"conditions": "Klebsiella pneumoniae, K. pneumoniae CRE, 418 isolates"}, "[3]": {"conditions": "Klebsiella pneumoniae, K. pneumoniae CRE, KPC, 163 isolates"}, "[4]": {"conditions": "Klebsiella pneumoniae, K. pneumoniae CRE, OXA-48-like, 89 isolates"}, "[5]": {"conditions": "Klebsiella pneumoniae, K. pneumoniae CRE, metallo-beta-lactamase, 126 isolates"}, "[6]": {"conditions": "Klebsiella pneumoniae, K. pneumoniae CRE, non-carbapenemase producing, 40 isolates"}, "[7]": {"conditions": "Klebsiella pneumoniae, K. pneumoniae ESBL phenotype, 157 isolates"}, "[8]": {"conditions": "Klebsiella pneumoniae, KPC-producing clinical strains with functional OmpK36, alone"}, "[9]": {"conditions": "Klebsiella pneumoniae, KPC-producing clinical strains with nonfunctional OmpK36, alone"}, "[10]": {"conditions": "Klebsiella pneumoniae, KPC-producing clinical strains, all strains (n = 141), alone"}}, "note": "Where “and” joins values, the source holds several entries; their conditions need not be identical. Identical values can stand only once. Like-named read-outs stand apart in the source and are kept apart here."}
{"smiles": "O=C(O)c1c(F)ccc2c1OB(O)[C@@H]1C[C@H]21", "note": "[Xeruborbactam]", "values": [{"measurement": "isolates with MIC values in an 8- to 16-μg/mL range", "setting": "228 isolates with the full-length OmpK36", "value": "~ 95%"}, {"measurement": "MIC range", "setting": "K. pneumoniae ESBL phenotype, 157 isolates", "value": "4 to 32", "unit": "µg/mL"}, {"measurement": "percentage of strains with xeruborbactam MIC values ≥32 µg/ml", "setting": "K. pneumoniae clinical isolates, OmpK36 full length (n=228)", "value": 5.3, "unit": "%"}, {"measurement": "MIC", "setting": "Klebsiella pneumoniae KPM1001 (ATCC 49816)", "value": 16, "unit": "µg/mL"}, {"measurement": "MIC", "setting": "Klebsiella pneumoniae KPM1001 (ATCC 49816), read-out: MIC", "value": 72, "unit": "µM"}, {"measurement": "MIC50", "setting": "[1]", "value": 16, "unit": "µg/mL"}, {"measurement": "MIC90", "setting": "[1]", "value": 32, "unit": "µg/mL"}, {"measurement": "MIC", "setting": "Klebsiella pneumoniae, ATCC49816, Klebsiella pneumoniae KPM1001 (ATCC 49816), read-out: MIC", "value": "72 µM and 16 µg/mL"}, {"measurement": "MIC", "setting": "Klebsiella pneumoniae, BAA2814, KPC-3-producing KP1074 (BAA-2814), xeruborbactam none, read-out: MIC", "value": "16 to 32", "unit": "µg/mL"}, {"measurement": "MIC50", "setting": "[2]", "value": 16, "unit": "µg/mL"}, {"measurement": "MIC90", "setting": "[2]", "value": 32, "unit": "µg/mL"}, {"measurement": "MIC50", "setting": "[3]", "value": 16, "unit": "µg/mL"}, {"measurement": "MIC90", "setting": "[3]", "value": 32, "unit": "µg/mL"}, {"measurement": "MIC50", "setting": "[4]", "value": 16, "unit": "µg/mL"}, {"measurement": "MIC90", "setting": "[4]", "value": 64, "unit": "µg/mL"}, {"measurement": "MIC50", "setting": "[5]", "value": 16, "unit": "µg/mL"}, {"measurement": "MIC90", "setting": "[5]", "value": 32, "unit": "µg/mL"}, {"measurement": "MIC50", "setting": "[6]", "value": 16, "unit": "µg/mL"}, {"measurement": "MIC90", "setting": "[6]", "value": 32, "unit": "µg/mL"}, {"measurement": "MIC50", "setting": "[7]", "value": 16, "unit": "µg/mL"}, {"measurement": "MIC90", "setting": "[7]", "value": 16, "unit": "µg/mL"}, {"measurement": "MIC50", "setting": "[8]", "value": 16, "unit": "µg/mL"}, {"measurement": "MIC90", "setting": "[8]", "value": "> 16", "unit": "µg/mL"}, {"measurement": "MIC50", "setting": "[9]", "value": "> 16", "unit": "µg/mL"}, {"measurement": "MIC90", "setting": "[9]", "value": "> 16", "unit": "µg/mL"}, {"measurement": "MIC50", "setting": "[10]", "value": "> 16", "unit": "µg/mL"}, {"measurement": "MIC90", "setting": "[10]", "value": "> 16", "unit": "µg/mL"}, {"measurement": "MIC", "setting": "Klebsiella pneumoniae, KPM1026a (no beta-lactamase), xeruborbactam 0 µg/ml, read-out: MIC", "value": 16, "unit": "µg/mL"}, {"measurement": "MIC", "setting": "Klebsiella pneumoniae, KPM1026a, alone, read-out: MIC", "value": 16, "unit": "µg/mL"}, {"measurement": "MIC", "setting": "Klebsiella pneumoniae, KPM1026a, parent, read-out: MIC", "value": 16, "unit": "µg/mL"}, {"measurement": "MIC", "setting": "Klebsiella pneumoniae, KPM1211 (KP1074 after loss of pKpQIL), read-out: MIC", "value": "16 to 32", "unit": "µg/mL"}, {"measurement": "MIC", "setting": "Klebsiella pneumoniae, KPM1271 (KPC-3; wild type), alone, read-out: MIC", "value": 16, "unit": "µg/mL"}, {"measurement": "MIC", "setting": "Klebsiella pneumoniae, KPM1271 (KPM1026a/KPC-3), alone, read-out: MIC", "value": 16, "unit": "µg/mL"}, {"measurement": "MIC", "setting": "Klebsiella pneumoniae, KPM1272 (KPC-3; ramR_fs), alone, read-out: MIC", "value": 16, "unit": "µg/mL"}, {"measurement": "MIC", "setting": "Klebsiella pneumoniae, KPM1273 (KPC-3; ramR_fs ompK36_1171), alone, read-out: MIC", "value": 64, "unit": "µg/mL"}, {"measurement": "MIC", "setting": "Klebsiella pneumoniae, KPM1281 (KPM1026a/NDM-1), alone, read-out: MIC", "value": 16, "unit": "µg/mL"}, {"measurement": "MIC", "setting": "Klebsiella pneumoniae, KPM2067 (KPC-3; ompK36_fs), alone, read-out: MIC", "value": 16, "unit": "µg/mL"}, {"measurement": "MIC", "setting": "Klebsiella pneumoniae, KPM2601 (KPC-3; ΔompK35), alone", "value": 16, "unit": "µg/mL"}, {"measurement": "MIC", "setting": "Klebsiella pneumoniae, KPM2631 (KPC-3; ompK36_fs ΔompK35), alone", "value": 32, "unit": "µg/mL"}, {"measurement": "MIC", "setting": "Klebsiella pneumoniae, KPM3532 (TolQ::M189K), alone", "value": 32, "unit": "µg/mL"}, {"measurement": "MIC", "setting": "Klebsiella pneumoniae, KPM3532, TolQ::M189K", "value": 32, "unit": "µg/mL"}, {"measurement": "MIC", "setting": "Klebsiella pneumoniae, KPM3534 (TolQ::S31F), alone", "value": 32, "unit": "µg/mL"}, {"measurement": "MIC", "setting": "Klebsiella pneumoniae, KPM3534, TolQ::S31F", "value": 32, "unit": "µg/mL"}, {"measurement": "MIC", "setting": "Klebsiella pneumoniae, KPM4127 (KPM3532 TolQ::M189K/KPC-3), alone", "value": 32, "unit": "µg/mL"}, {"measurement": "MIC", "setting": "Klebsiella pneumoniae, KPM4128 (KPM3534 TolQ::S31F/KPC-3), alone", "value": 32, "unit": "µg/mL"}, {"measurement": "MIC", "setting": "Klebsiella pneumoniae, KPM4129 (KPM3532 TolQ::M189K/NDM-1), alone", "value": 32, "unit": "µg/mL"}, {"measurement": "MIC", "setting": "Klebsiella pneumoniae, KPM4130 (KPM3534 TolQ::S31F/NDM-1), alone", "value": 32, "unit": "µg/mL"}, {"measurement": "MIC", "setting": "Klebsiella pneumoniae, KPM4235, TolQ::IP(183–1844)PR", "value": 32, "unit": "µg/mL"}, {"measurement": "MIC", "setting": "Klebsiella pneumoniae, KPM4236, TolQ::TAA at aa 103", "value": 32, "unit": "µg/mL"}, {"measurement": "MIC", "setting": "Klebsiella pneumoniae, KPM4238, TolQ::S25F", "value": 32, "unit": "µg/mL"}, {"measurement": "MIC", "setting": "Klebsiella pneumoniae, KPM4239, TolQ::S28F", "value": 32, "unit": "µg/mL"}, {"measurement": "MIC", "setting": "Klebsiella pneumoniae, KPM4240, TolQ::S25Y", "value": 32, "unit": "µg/mL"}, {"measurement": "MIC", "setting": "Klebsiella pneumoniae, Klebsiella pneumoniae isolates, read-out: highest MIC observed", "value": 64, "unit": "µg/mL"}, {"measurement": "MIC", "setting": "Klebsiella pneumoniae, clinical isolate KP1004, OmpK35 NF, OmpK36 FN, read-out: MIC", "value": 16, "unit": "µg/mL"}, {"measurement": "MIC", "setting": "Klebsiella pneumoniae, clinical isolate KP1070, OmpK35 NF, OmpK36 FN, read-out: MIC", "value": 8, "unit": "µg/mL"}, {"measurement": "MIC", "setting": "Klebsiella pneumoniae, clinical isolate KP1074, OmpK35 NF, OmpK36 PFN (GD), read-out: MIC", "value": 32, "unit": "µg/mL"}, {"measurement": "MIC", "setting": "Klebsiella pneumoniae, clinical isolate KP1093, OmpK35 NF, OmpK36 PFN (GD), read-out: MIC", "value": 32, "unit": "µg/mL"}, {"measurement": "MIC", "setting": "Klebsiella pneumoniae, clinical isolate KP1251, OmpK35 NF, OmpK36 FN, read-out: MIC", "value": 16, "unit": "µg/mL"}, {"measurement": "MIC", "setting": "Klebsiella pneumoniae, clinical isolate KP1274, OmpK35 FN, OmpK36 FN, read-out: MIC", "value": 8, "unit": "µg/mL"}, {"measurement": "MIC", "setting": "Klebsiella pneumoniae, clinical isolate KP1463, OmpK35 NF, OmpK36 NF, read-out: MIC", "value": 64, "unit": "µg/mL"}, {"measurement": "MIC", "setting": "Klebsiella pneumoniae, clinical isolate KP1469, OmpK35 NF, OmpK36 NF, read-out: MIC", "value": 64, "unit": "µg/mL"}, {"measurement": "MIC", "setting": "Klebsiella pneumoniae, clinical isolate KP1598, OmpK35 NF, OmpK36 PFN (GD), read-out: MIC", "value": 64, "unit": "µg/mL"}, {"measurement": "MIC", "setting": "Klebsiella pneumoniae, strain KPM1026a measured at 30°C (Fig. 6), read-out: MIC", "value": 32, "unit": "µg/mL"}, {"measurement": "MIC", "setting": "Klebsiella pneumoniae, strain KPM1026a, wild type, read-out: MIC", "value": 16, "unit": "µg/mL"}, {"measurement": "MIC", "setting": "Klebsiella pneumoniae, strain KPM1026a, read-out: MIC", "value": 16, "unit": "µg/mL"}, {"measurement": "MIC", "setting": "Klebsiella pneumoniae, strain KPM1027, ramR, read-out: MIC", "value": 16, "unit": "µg/mL"}, {"measurement": "MIC", "setting": "Klebsiella pneumoniae, strain KPM1171, lacks porins and overexpresses AcrAB", "value": 64, "unit": "µg/mL"}, {"measurement": "MIC", "setting": "Klebsiella pneumoniae, strain KPM1171, ramR ompK36_1171, read-out: MIC", "value": 64, "unit": "µg/mL"}, {"measurement": "MIC", "setting": "Klebsiella pneumoniae, strain KPM2040, ompK36_2040, read-out: MIC", "value": 16, "unit": "µg/mL"}, {"measurement": "MIC", "setting": "Klebsiella pneumoniae, strain KPM2600, ΔompK35", "value": 16, "unit": "µg/mL"}]}
